# Data taken from the supplement of paper PMC10307832.
# Legend:
# Assay in all cases: relative viability (nuclei count vs DMSO), 5 days (fraction); higher = more cells survive
# [1] = compound: Cc1ccc(C(=O)Nc2cccc(C(F)(F)F)c2)cc1Nc1cncc(C(N)=O)c1 [ALW-II-49-7] + CS(=O)(=O)N1CCN(Cc2cc3nc(-c4cccc5[nH]ncc45)nc(N4CCOCC4)c3s2)CC1 [Pictilisib] (partner 1 µM)
# Outline: (§1)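 Relative viability equals treated-well nuclei counts divided by vehicle-well nuclei counts. Counts came from 4× images of lung cancer cell lines grown in 1536-well plates for 5 days after pin-tool dosing on the day after seeding. Dosing used one drug alone or a fixed anchor-drug dose plus five library-drug doses (not always all listed) in √10 steps, and values are medians of duplicate plates.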
# [2] = compound: Cc1nc(Nc2ncc(C(=O)Nc3c(C)cccc3Cl)s2)cc(N2CCN(CCO)CC2)n1 [Dasatinib] + CS(=O)(=O)N1CCN(Cc2cc3nc(-c4cccc5[nH]ncc45)nc(N4CCOCC4)c3s2)CC1 [Pictilisib] (partner 1 µM)
# Outline: as §1
# [3] = compound: Cc1ccc(C(=O)Nc2cccc(C(F)(F)F)c2)cc1Nc1cncc(C(N)=O)c1 [ALW-II-49-7] + Nc1nc2[nH]cc(CCc3ccc(C(=O)N[C@@H](CCC(=O)O)C(=O)O)cc3)c2c(=O)[nH]1 [Pemetrexed] (partner 0.2 µM)
# Outline: as §1
# [4] = compound: Cc1ccc(C(=O)Nc2cccc(C(F)(F)F)c2)cc1Nc1cncc(C(N)=O)c1 [ALW-II-49-7] + CC(=O)Nc1cccc(-n2c(=O)n(C3CC3)c(=O)c3c(Nc4ccc(I)cc4F)n(C)c(=O)c(C)c32)c1 [Trametinib] (partner 0.02 µM)
# Outline: as §1
cell line,measurement,setting,value
UMC-11,relative viability,[1]; first compound 0.08 µM,0.917
same,relative viability,[1]; first compound 0.253 µM,0.807
same,relative viability,[1]; first compound 2.53 µM,1.06
same,relative viability,[1]; first compound 8 µM,0.814
same,relative viability,[2]; first compound 0.005 µM,0.735
same,relative viability,[2]; first compound 0.01581 µM,0.64
same,relative viability,[2]; first compound 0.05 µM,0.49
same,relative viability,[2]; first compound 0.1581 µM,0.288
same,relative viability,[2]; first compound 0.5 µM,0.288
same,relative viability,[3]; first compound 0.08 µM,0.856
same,relative viability,[3]; first compound 0.253 µM,0.79
same,relative viability,[3]; first compound 0.8 µM,0.76
same,relative viability,[3]; first compound 2.53 µM,0.803
same,relative viability,[3]; first compound 8 µM,0.705
same,relative viability,[4]; first compound 0.08 µM,0.791
same,relative viability,[4]; first compound 0.253 µM,0.69
same,relative viability,[4]; first compound 0.8 µM,0.896
same,relative viability,[4]; first compound 2.53 µM,0.821
same,relative viability,[4]; first compound 8 µM,0.599
